Source: patent US6737383B1, “Herbicidal oxadiazolidines” (priority 1999, dated 2004)

How the values were obtained:
[1] = tested on: wheat; experiment: Test B pre/postemergence wheat; format: in vivo, Triticum aestivum; details: for Wheat plant response rating: scale of 0 to 10 where 0 is no effect and 10 is complete control
Outline: (§1)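 Herbicidal effect was estimated by eye on a ten-point control scale after plants spent twelve to sixteen days in a greenhouse following soil or foliar treatment. Foliar sprays targeted plants at one to four leaves; all doses were formulated in a non-phytotoxic solvent with surfactant.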

[2] = tested on: morningglory; experiment: Test B pre/postemergence morningglory; format: in vivo, Ipomoea hederacea; details: for Morningglory plant response rating: scale of 0 to 10 where 0 is no effect and 10 is complete control
Outline: as §1

[3] = tested on: blackgrass; experiment: Test B pre/postemergence blackgrass; format: in vivo, Alopecurus myosuroides; details: for Blackgrass plant response rating: scale of 0 to 10 where 0 is no effect and 10 is complete control
Outline: as §1

[4] = tested on: velvetleaf; experiment: Test B pre/postemergence velvetleaf; format: in vivo, Abutilon theophrasti; details: for Velvetleaf plant response rating: scale of 0 to 10 where 0 is no effect and 10 is complete control
Outline: as §1

[5] = tested on: bedstraw; experiment: Test B pre/postemergence bedstraw; format: in vivo, Galium aparine; details: for Bedstraw plant response rating: scale of 0 to 10 where 0 is no effect and 10 is complete control
Outline: as §1

[6] = tested on: soybean; experiment: Test B pre/postemergence soybean; format: in vivo, Glycine max; details: for Soybean plant response rating: scale of 0 to 10 where 0 is no effect and 10 is complete control
Outline: as §1

[7] = tested on: purple nutsedge; experiment: Test B pre/postemergence purple nutsedge; format: in vivo, Cyperus rotundus; details: for Nutsedge plant response rating: scale of 0 to 10 where 0 is no effect and 10 is complete control
Outline: as §1

[8] = tested on: giant foxtail; experiment: Test B pre/postemergence giant foxtail; format: in vivo, Setaria faberii; details: for Giant foxtail plant response rating: scale of 0 to 10 where 0 is no effect and 10 is complete control
Outline: as §1

[9] = tested on: sugar beet; experiment: Test B pre/postemergence sugar beet; format: in vivo, Beta vulgaris; details: for Sugarbeets plant response rating: scale of 0 to 10 where 0 is no effect and 10 is complete control
Outline: as §1

[10] = tested on: smallflower flatsedge; experiment: Test B flood test smallflower flatsedge; format: in vivo, Cyperus difformis
Outline: (§2)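 Flood test on plants grown to the 2-leaf stage; treated plants kept in greenhouse twelve to sixteen days, then visually rated against controls on a 0 (no effect) to 10 (complete control) scale.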

[11] = tested on: wild oat; experiment: Test B pre/postemergence wild oat; format: in vivo, Avena fatua; details: for Wild oats plant response rating: scale of 0 to 10 where 0 is no effect and 10 is complete control
Outline: as §1

[12] = tested on: bamyardgrass; experiment: Test B flood test barnyardgrass; format: in vivo, Echinochloa crus-galli
Outline: as §2

[13] = tested on: rice; experiment: Test B flood test rice; format: in vivo, Oryza sativa
Outline: as §2

[14] = tested on: rape; experiment: Test B pre/postemergence rape; format: in vivo, Brassica napus; details: for Rape plant response rating: scale of 0 to 10 where 0 is no effect and 10 is complete control
Outline: as §1

[15] = tested on: duck salad; experiment: Test B flood test duck salad; format: in vivo, Heteranthera limosa
Outline: as §2

[16] = tested on: pigweed; experiment: Test B pre/postemergence pigweed; format: in vivo, Amaranthus retroflexus; details: for Redroot pigweed plant response rating: scale of 0 to 10 where 0 is no effect and 10 is complete control
Outline: as §1

[17] = Postemergence, Rate 125 g/ha, scale 0 to 10, 0 is no effect, 10 is complete control
[18] = Postemergence, Rate 250 g/ha, scale 0 to 10, 0 is no effect, 10 is complete control
[19] = Preemergence, Rate 62 g/ha, scale 0 to 10 (0 no effect, 10 complete control)
[20] = Rate 500 g/ha, Postemergence, scale 0 to 10, 0 no effect, 10 complete control
[21] = Postemergence (flood test), Rate 125 g/ha, scale 0 to 10, 0 is no effect, 10 is complete control
[22] = Rate 62 g/ha, Postemergence (flood test species), scale of 0 to 10 where 0 is no effect and 10 is complete control
[23] = Rate 500 g/ha, listed under Postemergence (flood test species), scale 0 to 10, 0 no effect, 10 complete control
[24] = flood test species, listed under Postemergence, Rate 250 g/ha, scale 0 to 10, 0 is no effect, 10 is complete control

Question: Which results are given for CCN(CC)C(=O)n1oc(=O)n(-c2ccccc2C)c1=O [Compound 364]?
Answer: Plant response rating, Wheat [1, 17]: 0; Plant response rating, Wheat [1, 18]: 0; Plant response rating, Wheat [1, 19]: 0; Wheat plant response rating (0 to 10 scale) ([1]; Preemergence, Rate 125 g/ha): 0; Wheat plant response rating ([1]; Preemergence, Rate 250 g/ha): 0; Wheat plant response rating ([1]; Preemergence, Rate 500 g/ha): 0; Wheat plant response rating ([1]; Rate 62 g/ha, Postemergence): 0; Plant response rating, Wheat [1, 20]: 0; Plant response rating, Morningglory [2, 17]: 0; Plant response rating, Morningglory [2, 18]: 0; Plant response rating, Morningglory [2, 19]: 0; Morningglory plant response rating (0 to 10 scale) ([2]; Preemergence, Rate 125 g/ha): 0; Morningglory plant response rating ([2]; Preemergence, Rate 250 g/ha): 0; Morningglory plant response rating ([2]; Preemergence, Rate 500 g/ha): 0; Morningglory plant response rating ([2]; Rate 62 g/ha, Postemergence): 0; Plant response rating, Morningglory [2, 20]: 4; Plant response rating, Blackgrass [3, 17]: 0; Plant response rating, Blackgrass [3, 18]: 0; Plant response rating, Blackgrass [3, 19]: 0; Blackgrass plant response rating (0 to 10 scale) ([3]; Preemergence, Rate 125 g/ha): 0; Blackgrass plant response rating ([3]; Preemergence, Rate 250 g/ha): 1; Blackgrass plant response rating ([3]; Preemergence, Rate 500 g/ha): 4; Blackgrass plant response rating ([3]; Rate 62 g/ha, Postemergence): 0; Plant response rating, Blackgrass [3, 20]: 2; Plant response rating, Velvetleaf [4, 17]: 0; Plant response rating, Velvetleaf [4, 18]: 0; Plant response rating, Velvetleaf [4, 19]: 0; Velvetleaf plant response rating (0 to 10 scale) ([4]; Preemergence, Rate 125 g/ha): 0; Velvetleaf plant response rating ([4]; Preemergence, Rate 250 g/ha): 0; Velvetleaf plant response rating ([4]; Preemergence, Rate 500 g/ha): 0; Velvetleaf plant response rating ([4]; Rate 62 g/ha, Postemergence): 0; Plant response rating, Velvetleaf [4, 20]: 0; Plant response rating, Bedstraw [5, 17]: 0; Plant response rating, Bedstraw [5, 18]: 0; Plant response rating, Bedstraw [5, 19]: 0; Bedstraw plant response rating (0 to 10 scale) ([5]; Preemergence, Rate 125 g/ha): 0; Bedstraw plant response rating ([5]; Preemergence, Rate 250 g/ha): 0; Bedstraw plant response rating ([5]; Preemergence, Rate 500 g/ha): 3; Bedstraw plant response rating ([5]; Rate 62 g/ha, Postemergence): 0; Plant response rating, Bedstraw [5, 20]: 0; Plant response rating, Soybean [6, 17]: 2; Plant response rating, Soybean [6, 18]: 3; Plant response rating, Soybean [6, 19]: 0; Soybean plant response rating (0 to 10 scale) ([6]; Preemergence, Rate 125 g/ha): 0; Soybean plant response rating ([6]; Preemergence, Rate 250 g/ha): 0; Soybean plant response rating ([6]; Preemergence, Rate 500 g/ha): 0; Soybean plant response rating ([6]; Rate 62 g/ha, Postemergence): 0; Plant response rating, Soybean [6, 20]: 3; Plant response rating, Nutsedge [7, 17]: 0; Plant response rating, Nutsedge [7, 18]: 0; Plant response rating, Nutsedge [7, 19]: 0; Nutsedge plant response rating (0 to 10 scale) ([7]; Preemergence, Rate 125 g/ha): 0; Nutsedge plant response rating ([7]; Preemergence, Rate 250 g/ha): 0; Nutsedge plant response rating ([7]; Rate 62 g/ha, Postemergence): 0; Plant response rating, Nutsedge [7, 20]: 0; Plant response rating, Giant foxtail [8, 17]: 3; Plant response rating, Giant foxtail [8, 18]: 6; Plant response rating, Giant foxtail [8, 19]: 3; Giant foxtail plant response rating (0 to 10 scale) ([8]; Preemergence, Rate 125 g/ha): 6; Giant foxtail plant response rating ([8]; Preemergence, Rate 250 g/ha): 9; Giant foxtail plant response rating ([8]; Preemergence, Rate 500 g/ha): 10; Giant foxtail plant response rating ([8]; Rate 62 g/ha, Postemergence): 0; Plant response rating, Giant foxtail [8, 20]: 8; Plant response rating, Sugarbeets [9, 17]: 0; Plant response rating, Sugarbeets [9, 18]: 0; Plant response rating, Sugarbeets [9, 19]: 0; Sugarbeets plant response rating (0 to 10 scale) ([9]; Preemergence, Rate 125 g/ha): 0; Sugarbeets plant response rating ([9]; Preemergence, Rate 250 g/ha): 0; Sugarbeets plant response rating ([9]; Preemergence, Rate 500 g/ha): 0; Sugarbeets plant response rating ([9]; Rate 62 g/ha, Postemergence): 0; Plant response rating, Sugarbeets [9, 20]: 1; Plant response rating, S. Flatsedge [10, 21]: 0; S. Flatsedge plant response rating [10, 22]: 0; Plant response rating, S. Flatsedge [10, 23]: 3; Plant response rating, S. Flatsedge [10, 24]: 0; Plant response rating, Wild oats [11, 17]: 0; Plant response rating, Wild oats [11, 18]: 0; Plant response rating, Wild oats [11, 19]: 0; Wild oats plant response rating (0 to 10 scale) ([11]; Preemergence, Rate 125 g/ha): 0; Wild oats plant response rating ([11]; Preemergence, Rate 250 g/ha): 0; Wild oats plant response rating ([11]; Preemergence, Rate 500 g/ha): 3; Wild oats plant response rating ([11]; Rate 62 g/ha, Postemergence): 0; Plant response rating, Wild oats [11, 20]: 0; Plant response rating, Barnyardgrass [12, 21]: 0; Barnyardgrass plant response rating [12, 22]: 0; Plant response rating, Barnyardgrass [12, 23]: 0; Plant response rating, Barnyardgrass [12, 24]: 0; Plant response rating, Rice [13, 21]: 0; Rice plant response rating [13, 22]: 0; Plant response rating, Rice [13, 23]: 0; Plant response rating, Rice [13, 24]: 0; Plant response rating, Rape [14, 17]: 0; Plant response rating, Rape [14, 18]: 0; Plant response rating, Rape [14, 19]: 0; Rape plant response rating (0 to 10 scale) ([14]; Preemergence, Rate 125 g/ha): 0; Rape plant response rating ([14]; Preemergence, Rate 250 g/ha): 0; Rape plant response rating ([14]; Preemergence, Rate 500 g/ha): 2; Rape plant response rating ([14]; Rate 62 g/ha, Postemergence): 0; Plant response rating, Rape [14, 20]: 0; Plant response rating, Ducksalad [15, 21]: 0; Ducksalad plant response rating [15, 22]: 0; Plant response rating, Ducksalad [15, 23]: 0; Plant response rating, Ducksalad [15, 24]: 0; Plant response rating, Redroot pigweed [16, 17]: 0; Plant response rating, Redroot pigweed [16, 18]: 0; Plant response rating, Redroot pigweed [16, 19]: 0; Redroot pigweed plant response rating (0 to 10 scale) ([16]; Preemergence, Rate 125 g/ha): 0; Redroot pigweed plant response rating ([16]; Preemergence, Rate 250 g/ha): 0; Redroot pigweed plant response rating ([16]; Preemergence, Rate 500 g/ha): 0; Redroot pigweed plant response rating ([16]; Rate 62 g/ha, Postemergence): 0; Plant response rating, Redroot pigweed [16, 20]: 0
